# Test results reported in patent US20140162308A1, “DEVICE AND METHOD FOR I[…] AND COUNTING MICROBES AND DETERMINING ANTIMICROBIAL SENSITIVITY” (Texas State University, priority 2011, published 2014).
# Tested on: E. Coli B
# Assay: Antimicrobial sensitivity test: resistance signature of the microbial sample after adding the antibiotic
# Assay type: cell-based
# Conditions: 0.9 mL of 10^3 CFU/mL E. Coli B in LB Broth + 0.1 mL antibiotic, room temperature; slope of control samples remains negative; FIGS. 7A-7D
# Description: FIGS. 7A-7D depict signatures of microbial sample of 0.9 mL of a concentration of 10^3 CFU/mL of two-hour E. Coli B treated with 0.1 mL of antibiotics or antimicrobials and control samples in the absence thereof. What is common to all FIGS. 7A-7D is the slope for signatures with antibiotics or antimicrobials become positive, i.e., the resistance component of total impedance of the microbial sample increases, upon addition of the antibiotic or antimicrobial. The slope of the control samples remains negative.
# In further detail, a difference in the degree of the slope change for the signature can be observed. […]
# An overnight bacterial culture of E. coli B with a concentration of around 10^9 cells which had attained room temperature were diluted using LB Broth which had also attained room temperature to a final concentration of 10^3 cells. 0.9 ml of this solution was then placed into one sensor well which was connected to lead #1 of a reader unit. An additional 0.9 ml of the bacteria was placed into a second sensor well which was connected to lead#2 of a reader unit. […]
# An overnight bacterial culture of E. coli B with a concentration of around 10^9 cells that had attained room temperature were diluted to a final concentration of 10^3 cells. 0.9 ml of this solution was then placed into a first sensor well which was connected to lead #1 of a reader unit. […]
structure (smiles),measurement,value
Cc1cc(NS(=O)(=O)c2ccc(N)cc2)no1 [sulfamethoxazole],slope of the signature (resistance component of total impedance of the microbial sample) upon addition of the antibiotic or antimicrobial,steeper than for azithromycin
